Counter-ions that a name gives are not always drawn.
Tests used:
Experiment in all cases: MIC, agar dilution
Assay type in all cases: cell-based
Proteus rettgeri, 8479 = conditions: Providencia rettgeri, K-10 agar, 10^4 CFU, 37°C, 18 hours, read-out: M.I.C.
Experimental: (§1) The following methodology is used to determine the minimum inhibitory concentration (hereinafter referred to as MIC) of the […] of this invention.
(§2) The test organisms are grown in approximately 15-20 ml of Antibiotic Assay broth (Difco) by inoculating (in tubes) the broth with a loopful of the organism from a BHI (Difco) agar slant. The inoculated tubes are incubated at 37°C for 18 to 20 hours. These cultures are assumed to contain 10^9 colony forming units (hereinafter CFU) per milliliter. The cultures are diluted 1:100 to give a final inoculum level of 10^4 CFU; dilutions are made with K-10 broth^*.
(§3) The compounds are dissolved in the appropriate diluent at a concentration of 1000 µg/ml. Twofold dilutions are made in K-10 broth resulting in a range from 1000 µg/ml to 0.5 µg/ml. 1.5 ml of each dilution is placed into individual square petri dishes to which 13.5 ml of K-10 agar^** is added. The final drug concentration in the agar ranges from 100 µg/ml to 0.05 µg/ml. Organism growth control plates containing agar only are prepared and inoculated before and after the test plates. The organisms are applied to the agar surface of each plate with the Denley Multipoint Inoculator (which delivers approximately 0.001 ml of each organism) resulting in a final inoculum level of 10^4 CFU on the agar surface.
(§4) The plates are incubated at 37 °C for 18 hours and the MIC's are determined. The MIC is the lowest concentration of compound inhibiting growth of the organism.
(§5) The tables that follow are tabulated results obtained when the B-lactams of this invention are tested against various organisms. The number following each organism refers to the number of the organism in the collection of E. R. Squibb & Sons,.Inc., Princeton, New Jersey. […] The symbol "N.T." means not tested.

[1] = test system: Enterobacter aerogenes, 10078; conditions: Klebsiella aerogenes, 10078, 18 h, Enterobacter aerogenes, 10078; K-10 agar, 10^4 CFU, 37°C, 18 hours; read-out: M.I.C.
Experimental: as §1, §2, §3, §4, §5

[2] = test system: Pseudomonas aeruginosa, 9545; conditions: Pseudomonas aeruginosa, 9545, 18 h, K-10 agar, 10^4 CFU, 37°C, read-out: M.I.C.
Experimental: as §1, §2, §3, §4, §5

[3] = test system: Klebsiella pneumoniae, 9527; conditions: Klebsiella pneumoniae, 9527, 18 h, K-10 agar, 10^4 CFU, 37°C, read-out: M.I.C.
Experimental: as §1, §2, §3, §4, §5

Proteus mirabilis, 3855 = conditions: Proteus mirabilis, 3855, 18 h, K-10 agar, 10^4 CFU, 37°C, read-out: M.I.C.
Experimental: as §1, §2, §3, §4, §5

Escherichia coli, 10896 = conditions: K-10 agar, 10^4 CFU, 37°C, 18 hours
Experimental: as §1, §2, §3, §4, §5

Salmonella typhosa, 1195 = conditions: Salmonella enterica, TYPHOSA, 18 h, K-10 agar, 10^4 CFU, 37°C
Experimental: as §1, §2, §3, §4, §5

[4] = test system: Serratia marcescens, 9783; conditions: Serratia marcescens, 9783, 18 h, K-10 agar, 10^4 CFU, 37°C, read-out: M.I.C.
Experimental: as §1, §2, §3, §4, §5

[5] = test system: Streptococcus faecalis, 9011; conditions: Enterococcus faecalis; Streptococcus faecalis, 9011; K-10 agar, 10^4 CFU, 37°C, 18 hours; read-out: M.I.C.
Experimental: as §1, §2, §3, §4, §5

Escherichia coli, 10857 = conditions: Escherichia coli, 10857, 18 h, K-10 agar, 10^4 CFU, 37°C
Experimental: as §1, §2, §3, §4, §5

Escherichia coli, 10909 = conditions: K-10 agar, 10^4 CFU, 37°C, 18 hours
Experimental: as §1, §2, §3, §4, §5

[6] = test system: Staphylococcus aureus, 1276; conditions: Staphylococcus aureus, 1276; K-10 agar, 10^4 CFU, 37°C, 18 hours; read-out: M.I.C.
Experimental: as §1, §2, §3, §4, §5

[7] = test system: Staphylococcus aureus, 2399; conditions: Staphylococcus aureus, 2399, 18 h, Staphylococcus aureus, 2399; K-10 agar, 10^4 CFU, 37°C, 18 hours; read-out: M.I.C.
Experimental: as §1, §2, §3, §4, §5

[8] = test system: Citrobacter freundii, 9518; conditions: K-10 agar, 10^4 CFU, 37°C, 18 hours, read-out: M.I.C.
Experimental: as §1, §2, §3, §4, §5

[9] = test system: Acinetobacter calcoaceticus, 8333; conditions: Acinetobacter calcoaceticus, 8333, 18 h, K-10 agar, 10^4 CFU, 37°C, read-out: M.I.C.
Experimental: as §1, §2, §3, §4, §5

Proteus vulgaris, 9416 = conditions: K-10 agar, 10^4 CFU, 37°C, 18 hours, read-out: M.I.C.
Experimental: as §1, §2, §3, §4, §5

Escherichia coli, 8294 = conditions: Escherichia coli, 8294, 18 h, K-10 agar, 10^4 CFU, 37°C
Experimental: as §1, §2, §3, §4, §5

[10] = test system: Staphylococcus aureus, 2400; conditions: Staphylococcus aureus, 2400; K-10 agar, 10^4 CFU, 37°C, 18 hours; read-out: M.I.C.
Experimental: as §1, §2, §3, §4, §5

Shigella sonnei, 8449 = conditions: Shigella sonnei, 8449, 18 h, K-10 agar, 10^4 CFU, 37°C
Experimental: as §1, §2, §3, §4, §5

[11] = test system: Staphylococcus aureus, 10165; conditions: Staphylococcus aureus, 10165; K-10 agar, 10^4 CFU, 37°C, 18 hours; read-out: M.I.C.
Experimental: as §1, §2, §3, §4, §5

[12] = test system: Klebsiella aerogenes, 10440; conditions: K-10 agar, 10^4 CFU, 37°C, 18 hours, read-out: M.I.C.
Experimental: as §1, §2, §3, §4, §5

[13] = test system: Pseudomonas aeruginosa, 8329; conditions: K-10 agar, 10^4 CFU, 37°C, 18 hours, read-out: M.I.C.
Experimental: as §1, §2, §3, §4, §5

[14] = test system: Enterobacter cloacae, 8236; conditions: Enterobacter cloacae, 8236, 18 h, K-10 agar, 10^4 CFU, 37°C
Experimental: as §1, §2, §3
(§6) The MIC is the lowest concentration of compound inhibiting growth of the organism.
(§7) The number following each organism refers to the number of the organism in the collection of E. R. Squibb & Sons,.Inc., Princeton, New Jersey. […] The symbol "N.T." means not tested.

Micrococcus luteus, 2495 = conditions: Micrococcus luteus, 2495, 18 h, K-10 agar, 10^4 CFU, 37°C, read-out: M.I.C.
Experimental: as §1, §2, §3, §6, §7

[15] = test system: Streptococcus agalactiae, 9287; conditions: Streptococcus agalactiae, 9287, 18 h, K-10 agar, 10^4 CFU, 37°C, read-out: M.I.C.
Experimental: as §1, §2, §3, §6, §7

| Compound | MIC (Proteus rettgeri, 8479) [µg/mL] | MIC [1] [µg/mL] | MIC [2] [µg/mL] | MIC [3] [µg/mL] | MIC (Proteus mirabilis, 3855) [µg/mL] | MIC (Escherichia coli, 10896) [µg/mL] | MIC (Salmonella typhosa, 1195) [µg/mL] | MIC [4] [µg/mL] | MIC [5] [µg/mL] | MIC (Escherichia coli, 10857) [µg/mL] | MIC (Escherichia coli, 10909) [µg/mL] | MIC [6] [µg/mL] | MIC [7] [µg/mL] | MIC [8] [µg/mL] | MIC [9] [µg/mL] | MIC (Proteus vulgaris, 9416) [µg/mL] | MIC (Escherichia coli, 8294) [µg/mL] | MIC [10] [µg/mL] | MIC (Shigella sonnei, 8449) [µg/mL] | MIC [11] [µg/mL] | further results |
| --- | --- | --- | --- | --- | --- | --- | --- | --- | --- | --- | --- | --- | --- | --- | --- | --- | --- | --- | --- | --- | --- |
| CC1C(NC(=O)Cc2ccccc2)C(=O)N1S(=O)(=O)O (racemic) [Example 4, (cis)-4-Methyl-2-oxo-3-[(phenylacetyl)amino]-1-azetidinesulfonic acid, potassium salt] | 100 | > 100 | > 100 | 100 | > 100 | 100 | 100 | > 100 | > 100 | 50 | 50 | 25 | 25 | > 100 | > 100 | > 100 | 100 | 50 | 100 | 100 | MIC [12]: > 100 µg/mL; MIC [13]: > 100 µg/mL; MIC [14]: > 100 µg/mL; MIC (Micrococcus luteus, 2495): 50 µg/mL; MIC [15]: 12.5 µg/mL |
| CCN1CCN(C(=O)N[C@@H](C(=O)N[C@@H]2C(=O)N(S(=O)(=O)O)[C@@H]2C)c2ccccc2)C(=O)C1=O (relative stereo) [Example 22, [3S-[3α(R*),4α]]-3-[[[[(4-ethyl-2,3-dioxo-1-piperazinyl)carbonyl]amino]phenylacetyl]-amino]-4-methyl-2-oxo-1-azetidinesulfonic acid, potassium salt] | 0.2 | 6.3 | 6.3 | 0.1 | 0.4 | 1.6 | 0.4 | 6.3 | > 100 | 0.1 | 0.4 | 6.3 | 6.3 | 3.1 | 12.5 | < 0.05 | 3.1 | 25 | 1.6 | 100 | MIC [12]: 12.5 µg/mL; MIC [13]: 12.5 µg/mL; MIC [14]: 0.8 µg/mL; MIC (Micrococcus luteus, 2495): 6.3 µg/mL; MIC [15]: 6.3 µg/mL |
| CC1C(NC(=O)C(NC(=O)N2CCN(N=Cc3ccco3)C2=O)c2ccccc2)C(=O)N1S(=O)(=O)O (stereo not drawn) [Example 11, [3S-[3α(R*),4β]]-3-[[[[[3-[(2-furanyl-methylene)amino]-2-oxo-1-imidazolidinyl]-carbonyl]amino]phenylacetyl]amino]-4-methyl-2-oxo-1-azetidinesulfonic acid, potassium salt] | 0.4 | 1.6 | 1.6 | 0.1 | 0.4 | 0.4 | 0.2 | 0.8 | > 100 | < 0.05 | 0.1 | 25 | 25 | 0.8 | 12.5 | < 0.05 | 1.6 | 25 | 0.4 | > 100 | MIC [12]: 0.8 µg/mL; MIC [13]: 12.5 µg/mL; MIC [14]: 0.8 µg/mL; MIC (Micrococcus luteus, 2495): 6.3 µg/mL; MIC [15]: 0.4 µg/mL |

Reference: patent EP0187355A1, “Process for preparing beta-lactam antibiotics” (E.R. Squibb & Sons, Inc., priority 1981, dated 1982)
